According to PubChem BioAssay AID258 (DTP/NCI, 2004):
Several values for one entry are separate records, joined by “and”; a condition that tells them apart may be missing. Identical values can stand only once. Inconclusive results and toxic doses are left out.

System: CD2F1 mice, L1210 leukemia sc, survival T/C
Assay: NCI In Vivo Anticancer Drug Screen. Data for tumor model L1210 Leukemia (subcutaneous) in CD2F1 (CDF1) mice
Conditions: endpoint: median survival time, higher = longer survival
Outline: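 Transplantable tumor-bearing mice were treated with compound; survival or tumor size measured and expressed as treated-group value (T) divided by vehicle-treated control value (C).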

[1] = dose: 6.0 mg/kg/injection, schedule: Q01DX Z (sc), vehicle: other
[2] = dose: 10.1 mg/kg/injection, schedule: Q01DX Z (sc), vehicle: other
[3] = dose: 16.9 mg/kg/injection, schedule: Q01DX Z (sc), vehicle: other

CC[C@]1(O)C[C@H]2CN(CCc3c([nH]c4ccccc34)[C@@](C(=O)OC)(c3cc4c(cc3OC)N(C=O)[C@H]3[C@@](O)(C(=O)OC)[C@H](OC(C)=O)[C@]5(CC)C=CCN6CC[C@]43[C@@H]65)C2)C1
T/C (dose: 0.15 mg/kg/injection, schedule: Q01DX009 (ip), vehicle: saline): 98 % of control
T/C (dose: 0.2 mg/kg/injection, schedule: Q01DX009 (ip), vehicle: saline): 101 % of control
T/C (dose: 0.25 mg/kg/injection, schedule: Q01DX009 (ip), vehicle: saline): 98 % of control
T/C (dose: 0.25 mg/kg/injection, schedule: Q01DX009 (sc), vehicle: saline): 113 % of control
T/C (dose: 0.5 mg/kg/injection, schedule: Q01DX009 (sc), vehicle: saline): 108 % of control
T/C (dose: 0.75 mg/kg/injection, schedule: Q01DX009 (sc), vehicle: saline): 104 % of control and 92 % of control
T/C (dose: 1.0 mg/kg/injection, schedule: Q01DX009 (sc), vehicle: saline): 102 % of control
T/C (dose: 1.25 mg/kg/injection, schedule: Q01DX001 (iv), vehicle: water): 120 % of control
T/C (dose: 1.25 mg/kg/injection, schedule: Q01DX001 (sc), vehicle: water): 120 % of control
T/C (dose: 1.25 mg/kg/injection, schedule: Q01DX009 (sc), vehicle: saline): 111 % of control
T/C (dose: 1.5 mg/kg/injection, schedule: Q01DX009 (sc), vehicle: saline): 107 % of control
T/C (dose: 2.5 mg/kg/injection, schedule: Q01DX001 (iv), vehicle: water): 120 % of control
T/C (dose: 63.0 micrograms/kg/injection, schedule: Q01DX009 (ip), vehicle: saline): 101 % of control
T/C (dose: 63.0 micrograms/kg/injection, schedule: Q01DX009 (sc), vehicle: saline): 103 % of control
T/C (dose: 125.0 micrograms/kg/injection, schedule: Q01DX009 (ip), vehicle: saline): 98 % of control
T/C (dose: 125.0 micrograms/kg/injection, schedule: Q01DX009 (sc), vehicle: saline): 103 % of control
T/C (dose: 250.0 micrograms/kg/injection, schedule: Q01DX009 (ip), vehicle: saline): 96 % of control
T/C (dose: 250.0 micrograms/kg/injection, schedule: Q01DX009 (sc), vehicle: saline): 107 % of control
T/C (dose: 500.0 micrograms/kg/injection, schedule: Q01DX009 (ip), vehicle: saline): 96 % of control
T/C (dose: 500.0 micrograms/kg/injection, schedule: Q01DX009 (sc), vehicle: saline): 114 % of control

CC[C@](O)(C(=O)O)c1cc2n(c(=O)c1CO)Cc1cc3ccccc3nc1-2
T/C (dose: 1.33 mg/kg/injection, schedule: Q01DX009 (ip), vehicle: saline): 121 % of control
T/C (dose: 1.33 mg/kg/injection, schedule: Q01DX009 (sc), vehicle: saline): 122 % of control
T/C (dose: 2.0 mg/kg/injection, schedule: Q01DX009 (ip), vehicle: saline): 154 % of control
T/C (dose: 4.0 mg/kg/injection, schedule: Q01DX009 (ip), vehicle: saline): 113 % of control
T/C (dose: 5.0 mg/kg/injection, schedule: Q01DX009 (sc), vehicle: saline): 101 % of control
T/C (dose: 8.0 mg/kg/injection, schedule: Q01DX009 (ip), vehicle: saline): 86 % of control
T/C (dose: 8.0 mg/kg/injection, schedule: Q01DX009 (sc), vehicle: saline): 86 % of control
T/C (dose: 12.0 mg/kg/injection, schedule: Q01DX009 (sc), vehicle: saline): 115 % of control
T/C (dose: 16.0 mg/kg/injection, schedule: Q01DX009 (sc), vehicle: saline): 113 % of control

Nc1nc(=S)c2[nH]cnc2[nH]1
T/C (dose: 2.16 mg/kg/injection, schedule: Q01DX Z (sc), vehicle: other): 177 % of control
T/C (dose: 3.6 mg/kg/injection, schedule: Q01DX Z (sc), vehicle: other): 177 % of control
T/C [1]: 177 % of control
T/C [2]: 166 % of control
T/C [3]: 161 % of control

Nc1nc(=S)c2ncn(C3OC(CO)C(O)C3O)c2[nH]1 (stereo not given)
T/C [1]: 177 % of control
T/C [2]: 183 % of control
T/C [3]: 155 % of control
T/C (dose: 28.1 mg/kg/injection, schedule: Q01DX Z (sc), vehicle: other): 161 % of control
T/C (dose: 46.8 mg/kg/injection, schedule: Q01DX Z (sc), vehicle: other): 155 % of control
T/C (dose: 65.0 mg/kg/injection, schedule: Q01DX Z (sc), vehicle: other): 123 % of control
T/C (dose: 108.0 mg/kg/injection, schedule: Q01DX Z (sc), vehicle: other): 123 % of control
T/C (dose: 180.0 mg/kg/injection, schedule: Q01DX Z (sc), vehicle: other): 114 % of control
T/C (dose: 300.0 mg/kg/injection, schedule: Q01DX Z (sc), vehicle: other): 104 % of control

CN(CCN(C)C(=O)CCOS(C)(=O)=O)C(=O)CCOS(C)(=O)=O
T/C (dose: 25.0 mg/kg/injection, schedule: Q01DX009 (ip), vehicle: saline): 106 % of control and 107 % of control
T/C (dose: 50.0 mg/kg/injection, schedule: Q01DX009 (ip), vehicle: saline): 123 % of control
T/C (dose: 100.0 mg/kg/injection, schedule: Q01DX009 (ip), vehicle: saline): 171 % of control
T/C (dose: 200.0 mg/kg/injection, schedule: Q01DX009 (ip), vehicle: saline): 103 % of control and 94 % of control

O=C1c2c(O)ccc(O)c2C(=O)c2c(NCCNCCO)ccc(NCCNCCO)c21
T/C (dose: 0.5 mg/kg/injection, schedule: Q01DX009 (ip), vehicle: saline with Tween-80): 105 % of control and 114 % of control and 116 % of control
T/C (dose: 1.0 mg/kg/injection, schedule: Q01DX009 (ip), vehicle: saline with Tween-80): 114 % of control
T/C (dose: 2.0 mg/kg/injection, schedule: Q01DX009 (ip), vehicle: saline with Tween-80): 168 % of control

O=C(Nc1ccc(C2=NCCN2)cc1)c1cccc(C(=O)Nc2ccc(C3=NCCN3)cc2)c1
T/C (dose: 2.0 mg/kg/injection, schedule: Q01DX Z (iv), vehicle: water): 100 % of control
T/C (dose: 3.0 mg/kg/injection, schedule: Q01DX Z (sc), vehicle: methylcellulose (MC)): 100 % of control
T/C (dose: 4.0 mg/kg/injection, schedule: Q01DX Z (iv), vehicle: water): 111 % of control
T/C (dose: 5.0 mg/kg/injection, schedule: Q01DX Z (sc), vehicle: methylcellulose (MC)): 100 % of control
T/C (dose: 5.0 mg/kg/injection, schedule: Q01DX Z (sc), vehicle: water): 111 % of control
T/C (dose: 8.0 mg/kg/injection, schedule: Q01DX Z (iv), vehicle: water): 161 % of control
T/C (dose: 8.0 mg/kg/injection, schedule: Q01DX Z (sc), vehicle: water): 183 % of control
T/C (dose: 8.4 mg/kg/injection, schedule: Q01DX Z (sc), vehicle: methylcellulose (MC)): 111 % of control
T/C (dose: 8.4 mg/kg/injection, schedule: Q01DX Z (sc), vehicle: water): 200 % of control
T/C (dose: 14.0 mg/kg/injection, schedule: Q01DX Z (sc), vehicle: water): 250 % of control
T/C (dose: 16.0 mg/kg/injection, schedule: Q01DX Z (sc), vehicle: water): 277 % of control
T/C (dose: 23.0 mg/kg/injection, schedule: Q01DX Z (sc), vehicle: methylcellulose (MC)): 222 % of control
T/C (dose: 23.0 mg/kg/injection, schedule: Q01DX Z (sc), vehicle: water): 283 % of control
T/C (dose: 32.0 mg/kg/injection, schedule: Q01DX Z (sc), vehicle: water): 305 % of control
T/C (dose: 39.0 mg/kg/injection, schedule: Q01DX Z (sc), vehicle: methylcellulose (MC)): 161 % of control
T/C (dose: 39.0 mg/kg/injection, schedule: Q01DX Z (sc), vehicle: water): 266 % of control
T/C (dose: 64.0 mg/kg/injection, schedule: Q01DX Z (sc), vehicle: water): 283 % of control
T/C (dose: 65.0 mg/kg/injection, schedule: Q01DX Z (sc), vehicle: methylcellulose (MC)): 177 % of control
T/C (dose: 65.0 mg/kg/injection, schedule: Q01DX Z (sc), vehicle: water): 266 % of control
T/C (dose: 128.0 mg/kg/injection, schedule: Q01DX Z (sc), vehicle: water): 283 % of control
